Entries after “also recorded” stand apart in the source; their conditions may differ.
Experiment: Dynamic vapor sorption test
Assay type: physicochemical
Settings: 25° C.; for weight increased finally: 95% RH; for sensitivity to moisture / hygroscopicity: dynamic vapor sorption isotherm, 0-95% RH
Description: 2. Parameters of dynamic vapor sorption test: The instrument: a dynamic moisture absorption analyzer (DVS Advantage, Surface Measurement System Ltd); Experimental temperature: 25° C.; Adsorption range: 0-95% relative humidity; Step interval: 5% relative humidity; Balance standard of weight gain: less than 0.01% weight change in 5 minutes; Longest time of balance: 120 minutes.

Row | Structure (SMILES) | weight increased finally | sensitivity to moisture / hygroscopicity | moisture absorbed (relative humidity 50%) | moisture absorbed (weight gain against dry weight) (relative humidity increased from 0% to 85% RH) [%]
1 | OC[C@H]1O[C@@H](c2ccc(Cl)c(Cc3ccc(OCC4(F)COC4)cc3)c2)[C@H](O)[C@@H](O)[C@@H]1O [compound A, (2S,3R,4R,5S,6R)-2-(4-chloro-3-(4-((3-fluorooxetan-3-yl)methoxy)benzyl)phenyl)-6-(hydroxymethyl)tetrahydro-2H-pyran-3,4,5-triol] | 14.72% | sensitive to moisture | about 4.8% | –
2 | OC[C@H]1O[C@@H](c2ccc(Cl)c(Cc3ccc(OCC4(F)COC4)cc3)c2)[C@H](O)[C@@H](O)[C@@H]1O [eutectic crystal of the complex formed by compound A and L-p] [complex of (2S,3R,4R,5S,6R)-2-(4-chloro-3-(4-((3-fluorooxetan-3-yl)methoxy)benzyl)phenyl)-6-(hydroxymethyl)tetrahydro-2H-pyran-3,4,5-triol and bis(L-proline)] | about 9.967% | not very sensitive to moisture; also recorded: low hygroscopicity | – | 2.174
